Source: patent US11987588B2, “Modulators of the beta-3 adrenergic receptor useful for the treatment or prevention of heart failure and disorders related thereto” (Arena Pharmaceuticals, Inc., priority 2017, dated 2024)

Each compound was assayed against Beta-3 Adrenergic Receptor (Homo sapiens (Human), UniProt P13945) (assay: Homogeneous Time-Resolved Fluorescence (HTRF) cAMP antagonist assay, IC50 determination). Conditions: CHO-K1 cells stably expressing recombinant receptor, isoproterenol at EC90.
Beta-3 Adrenergic Receptor, sequence (P13945 whole entry, species assumed): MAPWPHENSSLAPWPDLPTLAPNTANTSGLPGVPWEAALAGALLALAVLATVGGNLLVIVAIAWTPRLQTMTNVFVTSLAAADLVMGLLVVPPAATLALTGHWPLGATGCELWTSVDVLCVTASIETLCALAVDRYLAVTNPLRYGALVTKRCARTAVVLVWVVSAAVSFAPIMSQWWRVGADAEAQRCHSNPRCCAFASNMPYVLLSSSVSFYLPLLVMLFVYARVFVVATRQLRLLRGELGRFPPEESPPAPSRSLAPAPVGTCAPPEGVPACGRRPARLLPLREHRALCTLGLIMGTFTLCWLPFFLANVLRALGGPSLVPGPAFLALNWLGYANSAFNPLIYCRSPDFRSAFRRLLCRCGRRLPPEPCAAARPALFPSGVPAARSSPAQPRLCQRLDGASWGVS
Assay type: cell-based
Summary of the method: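 In this functional readout, recombinant CHO-K1 cells received compound, then isoproterenol at its EC90. After 1 h at room temperature, cAMP levels were determined by HTRF using an on-plate standard curve, and IC50 values were fitted.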

CNS(=O)(=O)c1cccc(OC[C@@H](O)CNC2COC3(CCN(S(=O)(=O)c4cccc(-c5ccc(C(=N)N)cc5)c4)CC3)C2)c1 (stereo partly drawn) [Compound 383, 3′-(3-((S)-2-hydroxy-3-(3-(N-methylsulfamoyl)phenoxy)propylamino)-1-oxa-8-azaspiro[4.5]decan-8-ylsulfonyl)biphenyl-4-carboximidamide] and CNS(=O)(=O)c1cccc(OC[C@@H](O)CN[C@@H]2COC3(CCN(S(=O)(=O)c4cccc(-c5ccc(CC#N)cc5)c4)CC3)C2)c1 [Compound 293, 3-((S)-3-((S)-8-(4′-(cyanomethyl)biphenyl-3-ylsulfonyl)-1-oxa-8-azaspiro[4.5]decan-3-ylamino)-2-hydroxypropoxy)-N-methylbenzenesulfonamide] are within 1.5-fold of each other in IC50: 21.8 nM for the first, 16.2 nM for the second.

Compared with CNS(=O)(=O)c1cccc(OC[C@@H](O)CN[C@H]2COC3(CCN(S(=O)(=O)c4ccc5c(c4)C(=O)C(=O)N5)CC3)C2)c1 [Compound 498, 3-((S)-3-((R)-8-(2,3-dioxoindolin-5-ylsulfonyl)-1-oxa-8-azaspiro[4.5]decan-3-ylamino)-2-hydroxypropoxy)-N-methylbenzenesulfonamide], CNS(=O)(=O)c1cccc(OC[C@@H](O)CNC2COC3(CCN(S(=O)(=O)c4ccc(C(C)=O)cc4)CC3)C2)c1 (stereo partly drawn) [Compound 25, 3-((2S)-3-(8-(4-acetylphenylsulfonyl)-1-oxa-8-azaspiro[4.5]decan-3-ylamino)-2-hydroxypropoxy)-N-methylbenzenesulfonamide] is 4.5-fold lower in IC50: 117 nM for the first, 26 nM for the second.

Going from CCN1CCC(NS(=O)(=O)c2cccc(OC[C@@H](O)CNC3COC4(CCN(S(=O)(=O)c5ccc6ccccc6c5)CC4)C3)c2)CC1 (stereo partly drawn) [Compound 165, N-(1-ethylpiperidin-4-yl)-3-((2S)-2-hydroxy-3-(8-(naphthalen-2-ylsulfonyl)-1-oxa-8-azaspiro[4.5]decan-3-ylamino)propoxy)benzenesulfonamide] to CCNS(=O)(=O)c1cccc(OC[C@@H](O)CNC2COC3(CCN(S(=O)(=O)c4ccc5ccccc5c4)CC3)C2)c1 (stereo partly drawn) [Compound 101, N-ethyl-3-((2S)-2-hydroxy-3-(8-(naphthalen-2-ylsulfonyl)-1-oxa-8-azaspiro[4.5]decan-3-ylamino)propoxy)benzenesulfonamide], the IC50 falls from 311 nM to 9.62 nM (32-fold).

Going from CNS(=O)(=O)c1cccc(OC[C@@H](O)CNC2COC3(CCN(S(=O)(=O)c4c(C)nn(C)c4Cl)CC3)C2)c1 (stereo partly drawn) [Compound 163, 3-((2S)-3-(8-(5-chloro-1,3-dimethyl-1H-pyrazol-4-ylsulfonyl)-1-oxa-8-azaspiro[4.5]decan-3-ylamino)-2-hydroxypropoxy)-N-methylbenzenesulfonamide] to CNS(=O)(=O)c1cccc(OC[C@@H](O)CNC2COC3(CCN(S(=O)(=O)c4c(Cl)ccc5nsnc45)CC3)C2)c1 (stereo partly drawn) [Compound 197, 3-((2S)-3-(8-(5-chlorobenzo[c][1,2,5]thiadiazol-4-ylsulfonyl)-1-oxa-8-azaspiro[4.5]decan-3-ylamino)-2-hydroxypropoxy)-N-methylbenzenesulfonamide], the IC50 falls from 64.1 nM to 12.8 nM (5-fold).

Compared with NCCNS(=O)(=O)c1cccc(OC[C@@H](O)CNC2COC3(CCN(S(=O)(=O)c4ccc5ccccc5c4)CC3)C2)c1 (stereo partly drawn) [Compound 91, N-(2-aminoethyl)-3-((2S)-2-hydroxy-3-(8-(naphthalen-2-ylsulfonyl)-1-oxa-8-azaspiro[4.5]decan-3-ylamino)propoxy)benzenesulfonamide], O=S(=O)(NCCF)c1cccc(OC[C@@H](O)CNC2COC3(CCN(S(=O)(=O)c4ccc5ccccc5c4)CC3)C2)c1 (stereo partly drawn) [Compound 356, N-(2-fluoroethyl)-3-((2S)-2-hydroxy-3-(8-(naphthalen-2-ylsulfonyl)-1-oxa-8-azaspiro[4.5]decan-3-ylamino)propoxy)benzenesulfonamide] is 66-fold lower in IC50: 1120 nM for the first, 16.9 nM for the second.

First: CNS(=O)(=O)c1cccc(OC[C@@H](O)CNC2COC3(CCN(S(=O)(=O)c4ccc(OC)c(-c5ccc(CN)cc5)c4)CC3)C2)c1 (stereo partly drawn) [Compound 366, 3-((2S)-3-(8-(4′-(aminomethyl)-6-methoxybiphenyl-3-ylsulfonyl)-1-oxa-8-azaspiro[4.5]decan-3-ylamino)-2-hydroxypropoxy)-N-methylbenzenesulfonamide]
Second: CNS(=O)(=O)c1cccc(OC[C@@H](O)CNC2COC3(CCN(S(=O)(=O)c4ccc(C)c(-c5ccc(CN)cc5)c4)CC3)C2)c1 (stereo partly drawn) [Compound 376, 3-((2S)-3-(8-(4′-(aminomethyl)-6-methylbiphenyl-3-ylsulfonyl)-1-oxa-8-azaspiro[4.5]decan-3-ylamino)-2-hydroxypropoxy)-N-methylbenzenesulfonamide]
The IC50 of the first is 18-fold lower: 27.5 nM for the first, 499 nM for the second.

Going from CNS(=O)(=O)c1cccc(OC[C@@H](O)CNC2COC3(CCN(S(=O)(=O)c4ccc(OC)c5c4CCCC5)CC3)C2)c1 (stereo partly drawn) [Compound 222, 3-((2S)-2-hydroxy-3-(8-(4-methoxy-5,6,7,8-tetrahydronaphthalen-1-ylsulfonyl)-1-oxa-8-azaspiro[4.5]decan-3-ylamino)propoxy)-N-methylbenzenesulfonamide] to CNS(=O)(=O)c1cccc(OC[C@@H](O)CNC2COC3(CCN(S(=O)(=O)c4ccc(C)cc4OC)CC3)C2)c1 (stereo partly drawn) [Compound 135, 3-((2S)-2-hydroxy-3-(8-(2-methoxy-4-methylphenylsulfonyl)-1-oxa-8-azaspiro[4.5]decan-3-ylamino)propoxy)-N-methylbenzenesulfonamide], the IC50 falls from 109 nM to 33.3 nM (3.3-fold).

Compared with CNS(=O)(=O)c1cccc(OC[C@@H](O)CN[C@H]2COC3(CCN(S(=O)(=O)c4ccc(-c5ccc(CN(C)C)cc5)cc4)CC3)C2)c1 [Compound 405, 3-((S)-3-((R)-8-(4′-((dimethylamino)methyl)biphenyl-4-ylsulfonyl)-1-oxa-8-azaspiro[4.5]decan-3-ylamino)-2-hydroxypropoxy)-N-methylbenzenesulfonamide], CNS(=O)(=O)c1cccc(OC[C@@H](O)CNC2COC3(CCN(S(=O)(=O)c4cccc(-c5cccc(COC)c5)c4)CC3)C2)c1 (stereo partly drawn) [Compound 65, 3-((2S)-2-hydroxy-3-(8-(3′-(methoxymethyl)biphenyl-3-ylsulfonyl)-1-oxa-8-azaspiro[4.5]decan-3-ylamino)propoxy)-N-methylbenzenesulfonamide] is 1.7-fold higher in IC50: 51.8 nM for the first, 85.6 nM for the second. The first is the more potent here.

Going from CCNS(=O)(=O)c1cccc(OC[C@@H](O)CNC2COC3(CCN(S(=O)(=O)c4cccc(-c5cnn(CC)c5)c4)CC3)C2)c1 (stereo partly drawn) [Compound 209, N-ethyl-3-((2S)-3-(8-(3-(1-ethyl-1H-pyrazol-4-yl)phenylsulfonyl)-1-oxa-8-azaspiro[4.5]decan-3-ylamino)-2-hydroxypropoxy)benzenesulfonamide] to CNS(=O)(=O)c1cccc(OC[C@@H](O)CNC2COC3(CCN(S(=O)(=O)c4cccc(-c5cnc(OC)nc5)c4)CC3)C2)c1 (stereo partly drawn) [Compound 108, 3-((2S)-2-hydroxy-3-(8-(3-(2-methoxypyrimidin-5-yl)phenylsulfonyl)-1-oxa-8-azaspiro[4.5]decan-3-ylamino)propoxy)-N-methylbenzenesulfonamide], the IC50 falls from 41 nM to 13.4 nM (3.1-fold). The second is the more potent here.

Compared with CNS(=O)(=O)c1cccc(OC[C@@H](O)CN[C@H]2COC3(CCN(S(=O)(=O)c4cnc5[nH]c(C)c(Cl)c5c4)CC3)C2)c1 [Compound 517, 3-((S)-3-((R)-8-(3-chloro-2-methyl-1H-pyrrolo[2,3-b]pyridin-5-ylsulfonyl)-1-oxa-8-azaspiro[4.5]decan-3-ylamino)-2-hydroxypropoxy)-N-methylbenzenesulfonamide], CNS(=O)(=O)c1cccc(OC[C@@H](O)CN[C@H]2COC3(CCN(S(=O)(=O)c4cnc5nc(C)[nH]c5c4)CC3)C2)c1 [Compound 486, 3-((S)-2-hydroxy-3-((R)-8-(2-methyl-1H-imidazo[4,5-b]pyridin-6-ylsulfonyl)-1-oxa-8-azaspiro[4.5]decan-3-ylamino)propoxy)-N-methylbenzenesulfonamide] is 5.4-fold higher in IC50: 7.74 nM for the first, 41.5 nM for the second. The first is the more potent here.

Going from O=S(=O)(NCCO)c1cccc(OC[C@@H](O)CNC2COC3(CCN(S(=O)(=O)c4ccc5ccccc5c4)CC3)C2)c1 (stereo partly drawn) [Compound 12, 3-((2S)-2-hydroxy-3-(8-(naphthalen-2-ylsulfonyl)-1-oxa-8-azaspiro[4.5]decan-3-ylamino)propoxy)-N-(2-hydroxyethyl)benzenesulfonamide] to CN(C)CCCNS(=O)(=O)c1cccc(OC[C@@H](O)CNC2COC3(CCN(S(=O)(=O)c4ccc5ccccc5c4)CC3)C2)c1 (stereo partly drawn) [Compound 317, N-(3-(dimethylamino)propyl)-3-((2S)-2-hydroxy-3-(8-(naphthalen-2-ylsulfonyl)-1-oxa-8-azaspiro[4.5]decan-3-ylamino)propoxy)benzenesulfonamide], the IC50 rises from 31.7 nM to 1010 nM (32-fold). The first is the more potent here.

First: C[C@@H](NS(=O)(=O)c1cccc(OC[C@@H](O)CNC2COC3(CCN(S(=O)(=O)c4ccc5ccccc5c4)CC3)C2)c1)C1CC1 (stereo partly drawn) [Compound 93, N—((R)-1-cyclopropylethyl)-3-((2S)-2-hydroxy-3-(8-(naphthalen-2-ylsulfonyl)-1-oxa-8-azaspiro[4.5]decan-3-ylamino)propoxy)benzenesulfonamide]
Second: CNS(=O)(=O)c1cccc(OC[C@@H](O)CN[C@H]2COC3(CCN(S(=O)(=O)c4ccc5c(c4)N(C)CCO5)CC3)C2)c1 [Compound 300, 3-((S)-2-hydroxy-3-((R)-8-(4-methyl-3,4-dihydro-2H-benzo[b][1,4]oxazin-6-ylsulfonyl)-1-oxa-8-azaspiro[4.5]decan-3-ylamino)propoxy)-N-methylbenzenesulfonamide]
The IC50 of the first is 10-fold higher: 112 nM for the first, 10.9 nM for the second.

First: CNS(=O)(=O)c1cccc(OC[C@@H](O)CNC2COC3(CCN(S(=O)(=O)c4cccc(-c5ccc(NCCN6CCOCC6)nc5)c4)CC3)C2)c1 (stereo partly drawn) [Compound 371, 3-((2S)-2-hydroxy-3-(8-(3-(6-(2-morpholinoethylamino)pyridin-3-yl)phenylsulfonyl)-1-oxa-8-azaspiro[4.5]decan-3-ylamino)propoxy)-N-methylbenzenesulfonamide]
Second: CN(C)CCCNS(=O)(=O)c1cccc(OC[C@@H](O)CNC2COC3(CCN(S(=O)(=O)c4ccc5nsnc5c4)CC3)C2)c1 (stereo partly drawn) [Compound 312, 3-((2S)-3-(8-(benzo[c][1,2,5]thiadiazol-5-ylsulfonyl)-1-oxa-8-azaspiro[4.5]decan-3-ylamino)-2-hydroxypropoxy)-N-(3-(dimethylamino)propyl)benzenesulfonamide]
The IC50 of the first is 75-fold lower: 42 nM for the first, 3170 nM for the second. The first is the more potent here.
